US9605024B2, “PAR4 agonist peptides” (Bristol-Myers Squibb Company, priority 2012, dated 2017)

Legend:
washed platelets = assay: PAR4 agonist peptide induced platelet aggregation assay (washed platelets); assay type: cell-based, human; settings: agonist activity
Protocol: Human blood was collected in ACD (85 mM tri-sodium citrate, 78 mM citric acid, 110 mM D-glucose, pH 4.4) at a ratio of 1.4 ml per 10 ml blood. PRP was isolated by centrifugation at 170 g for 14 minutes and platelets were further pelleted by centrifugation at 1300 g for 6 minutes. Platelets were washed once with 10 ml ACD containing 1 mg/ml bovine serum albumin.
The ability of the compounds of the current invention to induce platelet aggregation was tested in a 96-well microplate aggregation assay format. Briefly, a washed platelet suspension with varying concentrations of agonist compounds was assayed. Aggregation was initiated by the addition of a titered test agonist peptide. The plate was then placed into a 37° C. Molecular Devices SPECTRAMAX® Plus Plate Reader (Sunnyvale, Calif.). […] The plate also included an untreated control sample which served as ODmax, while buffer containing no platelets was the ODmin. Platelet aggregation was determined by subtracting the ODmax from the ODmin for the 100% aggregation value. In experimental samples, the observed transmission was subtracted from the minimum value and then compared to the 100% aggregation value to determine the percentage aggregation. ED50 values were determined using Excel Fit software.

PAR4 [1] = biological target: T1, PAR4 (Homo sapiens (Human), UniProt Q96RI0); assay: Gamma thrombin induced platelet aggregation assay (PRP assay); assay type: cell-based; settings: platelet rich plasma
Protocol: The platelet rich plasma was isolated by centrifugation at 170 g for 14 minutes.
The ability of the compounds of the current invention to inhibit platelet aggregation induced by gamma-thrombin was tested in a 96-well microplate aggregation assay format. Briefly, PRP or washed platelet suspension (100 μl) was pre-incubated for 5 minutes at room temperature with varying concentrations of compounds. Aggregation was initiated by ˜10-50 nM gamma thrombin (Haematologic Technologies, Essex Junction, Vt.), which was titrated daily to achieve 80% platelet aggregation. Refludan at 1 U/mL (Berlex, Montville, N.J.) was added to the gamma thrombin sample to prevent PAR1 activation induced by residual alpha-thrombin contamination. The plate was then placed into a 37° C. Molecular Devices (Sunnyvale, Calif.) SPECTRAMAX® Plus Plate Reader. […] The plate also included an untreated control sample which served as ODmax, while buffer containing no platelets was the ODmin. Platelet aggregation was determined by subtracting the ODmax from the ODmin for the 100% aggregation value. In experimental samples, the observed transmission was subtracted from the minimum value and then compared to the 100% aggregation value to determine the percentage aggregation. IC50 values are determined using Excel Fit software.

PAR4 [2] = biological target: T1, PAR4; assay: FLIPR assay in PAR4-expressing HEK293 cells, test for antagonist activity; assay type: cell-based; settings: H-Ala-Phe(4-F)-Pro-Gly-Trp-Leu-Val-Lys-Asn-Gly-NH2-induced calcium mobilization
Excerpt: The FLIPR assay is an exemplary in vitro assay for measuring the activity of the PAR4 antagonists of the present invention. In this assay, intracellular calcium mobilization is induced in PAR4 expressing cells by a PAR4 agonist and calcium mobilization is monitored. See, e.g., Example A. The FLIPR assay is also an exemplary in vitro assay for measuring the agonist activity of PAR4 agonist peptides. See Example H.
HEK293 cells stably expressing PAR4 were generated by a standard method of transfection of human […] cDNA expression vector or by RAGE technology from Athersys Inc. (Cleveland, Ohio) and selected based on PAR4 protein expression of mRNA expression. […] These cells express endogenous PAR1 and can elicit calcium signal upon stimulation with PAR1 agonist peptide.
Counter screens for agonist activity and PAR1 antagonist activity were also performed. Briefly, HEK293 EBNA PAR4 clone 20664.1J cells were plated 24 hrs. prior to experiment in 384 well, Poly-D-Lysine coated, black, clear bottom plates (Greiner Bio-One, Monroe, N.C.). Cells were plated at 20,000 cells/well in 20 μl growth medium and incubated at 37° C. with 5% CO2 overnight. At time of assay, media was replaced with 40 μl 1× Hank's Buffered Saline Solution (HBSS) (with 10 mM HEPES) and 20 μl test compound also diluted in 1×HBSS buffer was added at various concentrations and 0.67% DMSO final concentration on the FDSS for agonist measurement. The cells were then incubated for 30 minutes at room temperature followed by addition of 20 μl of agonist peptide for antagonist measurement on the FDSS.

[3] = biological target: protease-activated receptor type 4 (PAR4) (Homo sapiens (Human), UniProt Q96RI0); settings: abstract of Lee et al., J. Med. Chem. 2001; cited from earlier work
[4] = TRACER phase III trial, ACS patients; cited from earlier work

T1 sequence (Q96RI0 18-385): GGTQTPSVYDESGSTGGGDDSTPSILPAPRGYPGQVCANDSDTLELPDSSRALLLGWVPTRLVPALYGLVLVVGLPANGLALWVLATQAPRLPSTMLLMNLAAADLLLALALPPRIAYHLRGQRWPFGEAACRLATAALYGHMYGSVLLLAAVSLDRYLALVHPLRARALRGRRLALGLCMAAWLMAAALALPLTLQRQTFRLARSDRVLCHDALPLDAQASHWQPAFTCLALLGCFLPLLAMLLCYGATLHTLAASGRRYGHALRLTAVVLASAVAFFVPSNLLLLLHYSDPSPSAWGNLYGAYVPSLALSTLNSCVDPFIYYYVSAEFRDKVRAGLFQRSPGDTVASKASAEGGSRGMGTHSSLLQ
Chain of protease-activated receptor type 4 (PAR4) (Q96RI0 18-385): as above

In the case of `COc1cc(OCc2csc(-c3ccccc3Cl)n2)c2cc(-c3cn4nc(OC)sc4n3)oc2c1` [Example 16], the “ED50 (μM) [Platelet Aggregation]” value (washed platelets) is reported as 37 µM.
For `COc1cc(OCc2cn(-c3ccccc3)nn2)c2cc(-c3cn4nc(OC)sc4n3)oc2c1` [Example 9, 2-Methoxy-6-(6-methoxy-4-((1-phenyl-1H-1,2,3-triazol-4-yl)methoxy)benzofuran-2-yl)imidazo[2,1-b][1,3,4]thiadiazole], the IC50 (PAR4 [1]) was > 3000 nM and the EC50 (PAR4 [2]) was 5.3 nM.
With `COc1cc(OCc2csc(-c3ccc(Cl)cc3)n2)c2cc(-c3cn4nc(OC)sc4n3)oc2c1` [Example 27] the “ED50 (μM) [Platelet Aggregation]” value (washed platelets) was 1.7 µM.
For `COc1cc(OCc2csc(-c3cccc(F)c3)n2)c2cc(-c3cn4nc(OC)sc4n3)oc2c1` [Example 25], the “ED50 (μM) [Platelet Aggregation]” value (washed platelets) was 52 µM.
In the case of `COc1cc(OCc2csc(-c3ccccc3OC)n2)c2cc(-c3cn4nc(OC)sc4n3)oc2c1` [Example 19], the “ED50 (μM) [Platelet Aggregation]” value (washed platelets) is reported as 1.6 µM.
With `COc1cc(OCc2csc(N3CCCCC3)n2)c2cc(-c3cn4nc(OC)sc4n3)oc2c1` [Example 21] the “ED50 (μM) [Platelet Aggregation]” value (washed platelets) was 2.4 µM.
With `COCCOCc1nc(COc2cc(OC)cc3oc(-c4cn5nc(OC)sc5n4)cc23)cs1` [Example 6, 2-Methoxy-6-(6-methoxy-4-((2-((2-methoxyethoxy)methyl)thiazol-4-yl)methoxy)benzofuran-2-yl)imidazo[2,1-b][1,3,4]thiadiazole] the “ED50 (μM) [Platelet Aggregation]” value (washed platelets) was 1.1 µM.
With `COc1cc(OCc2csc(C3CCOCC3)n2)c2cc(-c3cn4nc(OC)sc4n3)oc2c1` [Example 14] the “ED50 (μM) [Platelet Aggregation]” value (washed platelets) was 12.3 µM.
In the case of `COc1cc(OCc2csc(N3CCC(F)(F)CC3)n2)c2cc(-c3cn4nc(OC)sc4n3)oc2c1` [Example 31], the “ED50 (μM) [Platelet Aggregation]” value (washed platelets) is reported as 0.63 µM.
For `COc1cc(OCc2nc(-c3ccccc3)sc2C)c2cc(-c3cn4nc(OC)sc4n3)oc2c1` [Example 13], the “ED50 (μM) [Platelet Aggregation]” value (washed platelets) was 0.67 µM.
In the case of `COc1cc(OCc2csc(C3CCCCC3)n2)c2cc(-c3cn4nc(OC)sc4n3)oc2c1` [Example 20], the “ED50 (μM) [Platelet Aggregation]” value (washed platelets) is reported as 4.1 µM.
With `CCc1nc(COc2cc(OC)cc3oc(-c4cn5nc(OC)sc5n4)cc23)cs1` [Example 23] the “ED50 (μM) [Platelet Aggregation]” value (washed platelets) was 0.79 µM.
For `COc1cc(OCc2csc(-c3cccc(C)c3)n2)c2cc(-c3cn4nc(OC)sc4n3)oc2c1` [Example 12], the “ED50 (μM) [Platelet Aggregation]” value (washed platelets) was 0.97 µM.
With `COc1cc(OCc2cscn2)c2cc(-c3cn4nc(OC)sc4n3)oc2c1` [Example 34] the “ED50 (μM) [Platelet Aggregation]” value (washed platelets) was 3.0 µM.
Work on `COc1nn2cc(-c3cc4c(OCc5csc(-c6ccccc6)n5)cc(F)cc4o3)nc2s1` [Example 36, 6-(6-Fluoro-4-((2-phenylthiazol-4-yl)methoxy)benzofuran-2-yl)-2-methoxyimidazo[2,1-b][1,3,4]thiadiazole] yielded an IC50 (PAR4 [1]) of 48 nM and an EC50 (PAR4 [2]) of 1 nM.
With `COc1cc(OCc2csc(C)n2)c2cc(-c3cn4nc(OC)sc4n3)oc2c1` [Example 1, 2-Methoxy-6-(6-methoxy-4-((2-methylthiazol-4-yl)methoxy)benzofuran-2-yl)imidazo[2,1-b][1,3,4]thiadiazole] the “ED50 (μM) [Platelet Aggregation]” value (washed platelets) was 13 µM.
For `COc1cc(OCc2csc(-c3cc(C)on3)n2)c2cc(-c3cn4nc(OC)sc4n3)oc2c1` [Example 33], the “ED50 (μM) [Platelet Aggregation]” value (washed platelets) was 1.2 µM, the IC50 (PAR4 [1]) was 38 nM and the EC50 (PAR4 [2]) was 1.7 nM.
Work on `COc1cc(OCc2cnnn2-c2ccccc2)c2cc(-c3cn4nc(OC)sc4n3)oc2c1` [Example 10, 2-Methoxy-6-(6-methoxy-4-((1-phenyl-1H-1,2,3-triazol-5-yl)methoxy)benzofuran-2-yl)imidazo[2,1-b][1,3,4]thiadiazole] yielded an IC50 (PAR4 [1]) of 2700 nM and an EC50 (PAR4 [2]) of 3.5 nM.
With `COc1cc(OCc2csc(-c3ccccc3)n2)c2cc(-c3cn4nc(OC)sc4n3)oc2c1` [Example 3, 2-Methoxy-6-(6-methoxy-4-((2-phenylthiazol-4-yl)methoxy)benzofuran-2-yl)imidazo[2,1-b][1,3,4]thiadiazole] the “ED50 (μM) [Platelet Aggregation]” value (washed platelets) was 0.86 µM.
With `COc1cc(OCc2csc(N3CCN(C)CC3)n2)c2cc(-c3cn4nc(OC)sc4n3)oc2c1` [Example 22] the “ED50 (μM) [Platelet Aggregation]” value (washed platelets) was 1.2 µM.
For `COc1cc(OCc2csc(-c3cccc(C(F)(F)F)c3)n2)c2cc(-c3cn4nc(OC)sc4n3)oc2c1` [Example 17], the “ED50 (μM) [Platelet Aggregation]” value (washed platelets) was 106 µM.
For `COc1cc(OCc2csc(-c3cnccn3)n2)c2cc(-c3cn4nc(OC)sc4n3)oc2c1` [Example 32], the “ED50 (μM) [Platelet Aggregation]” value (washed platelets) was 0.61 µM.
With `COc1cc(OCc2csc(-c3ccc(F)cc3F)n2)c2cc(-c3cn4nc(OC)sc4n3)oc2c1` [Example 24] the “ED50 (μM) [Platelet Aggregation]” value (washed platelets) was 0.69 µM.
In the case of `COc1ccc(-c2nc(COc3cc(OC)cc4oc(-c5cn6nc(OC)sc6n5)cc34)cs2)cc1` [Example 18], the “ED50 (μM) [Platelet Aggregation]” value (washed platelets) is reported as 5.5 µM, the IC50 (PAR4 [1]) is reported as 3.6 nM and the EC50 (PAR4 [2]) is reported as 2.5 nM.
In the case of `COc1cc(OCc2csc(-c3cccnc3)n2)c2cc(-c3cn4nc(OC)sc4n3)oc2c1` [Example 30], the “ED50 (μM) [Platelet Aggregation]” value (washed platelets) is reported as 1.7 µM.
In the case of `COc1cc(OCc2csc(-c3ccc(F)cc3)n2)c2cc(-c3cn4nc(OC)sc4n3)oc2c1` [Example 15], the “ED50 (μM) [Platelet Aggregation]” value (washed platelets) is reported as 0.63 µM.
In the case of `COc1cc(OCc2csc(-c3ccccc3F)n2)c2cc(-c3cn4nc(OC)sc4n3)oc2c1` [Example 26], the “ED50 (μM) [Platelet Aggregation]” value (washed platelets) is reported as 1.0 µM.
For `CCOC(=O)c1ccc(-c2nn(Cc3ccccc3)c3ccccc23)cc1` [Compound 58], the “inhibition of PAR4-dependent platelet activation” value [3] is listed as “selective and potent inhibitor”.
In the case of `CCOC(=O)N[C@@H]1CC[C@@H]2[C@@H](C1)C[C@H]1C(=O)O[C@H](C)[C@H]1[C@H]2/C=C/c1ccc(-c2cccc(F)c2)cn1` [vorapaxar], the cardiovascular events [4] is given as “did not significantly reduce cardiovascular events” and the “risk of major bleeding” value [4] is given as “significantly increased the risk of major bleeding”.
In the case of `COc1cc(OCc2csc(-c3ccc(OC(F)(F)F)cc3)n2)c2cc(-c3cn4nc(OC)sc4n3)oc2c1` [Example 29], the “ED50 (μM) [Platelet Aggregation]” value (washed platelets) is reported as 1.0 µM.
Work on `COc1cc(OCc2csc(C(F)(F)F)n2)c2cc(-c3cn4nc(OC)sc4n3)oc2c1` [Example 2, 2-Methoxy-6-(6-methoxy-4-((2-(trifluoromethyl)thiazol-4-yl)methoxy)benzofuran-2-yl)imidazo[2,1-b][1,3,4]thiadiazole] yielded an IC50 (PAR4 [1]) of 49 nM and an EC50 (PAR4 [2]) of 0.42 nM.
In the case of `COc1cc(OCc2csc(-c3ccncc3)n2)c2cc(-c3cn4nc(OC)sc4n3)oc2c1` [Example 28], the “ED50 (μM) [Platelet Aggregation]” value (washed platelets) is reported as 0.76 µM.
